Test [1] relates to MIA PaCa-2 human pancreatic carcinoma. As to the kind of experiment: MIA PaCa-2 CCK-8 proliferation assay. It is filed as cell-based. Conditions: Homo sapiens, MIA PaCa-2, 72 h, MIA PaCa-2 cells. In a few lines:
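Percent inhibition derived from CCK-8 optical signal, normalised between DMSO-only cells (0%) and cell-free medium containing DMSO as background. Cells: MIA PaCa-2 carrying 2 KRAS(G12C) copies; NCI-H358, NCI-H23 carrying 1 copy apiece. Concentrations spanned 1.02 nM–20 μM in threefold increments.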
On the technique in general: Formazan colour is commonly taken as a measure of viable cells.

Another test concerns the target T1, HSP90a protein (Homo sapiens, UniProt P07900).
T1 construct: purchased BPS Bioscience 50298
As to the kind of experiment: HSP90α-binding fluorescent polarization (FP) assay, BODIPY-labeled RNK04010 probe. Conditions: FP competition with RNK04010 (BODIPY-labeled), 5 nM, 300 min at 25° C. Put shortly: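 Competitive FP with N-terminal HSP90a; probe at 5 nM final, either BODIPY-labeled triazolone RNK04010 or FITC-geldanamycin. Test compounds as 2.5-fold dilutions from 20 μM to 5.2 nM. Incubated at 25 °C for 300 min (RNK04010) or 120 min (FITC-geldanamycin) before reading polarization.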

The next test addresses KRAS(G12C) (Homo sapiens, UniProt P01116, G12C). Put plainly: KRAS(G12C)/SOS1 homogeneous time-resolved fluorescence (HTRF) assay. Set-up: purchased Cisbio 63ADK000CB16PEG. Conditions: absence of GTP, 4° C. for 3 hr, read-out: KRAS (G12C) binding. Put shortly: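 HTRF kit measuring compound-induced block of KRAS(G12C)-SOS1 interaction without GTP. Compounds tested as 3-fold serial dilutions down to 1.02 nM, incubated with reaction components 3 h at 4 °C in sealed plates before fluorescence read.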

Bounds are passed on as bounds.

Sequence of KRAS(G12C) (P01116 1-188 isoform P01116-2 G12C): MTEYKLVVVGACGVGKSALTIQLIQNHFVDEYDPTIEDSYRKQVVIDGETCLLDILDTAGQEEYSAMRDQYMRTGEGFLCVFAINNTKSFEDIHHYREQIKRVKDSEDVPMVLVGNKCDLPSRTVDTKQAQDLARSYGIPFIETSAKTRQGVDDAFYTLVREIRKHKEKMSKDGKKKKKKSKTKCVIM

In the case of `C=CC(=O)N1CCN(c2nc(OC[C@@H]3C[C@@H](OCC(=O)N4CCC(CN5CCN(Cc6ccc(-n7c(C(=O)NCC(F)(F)F)nnc7-c7cc(CC)c(O)cc7O)cc6)CC5)CC4)CN3C)nc3c2CCN(c2cccc4cccc(Cl)c24)C3)C[C@@H]1CC#N` [Compound 300, 4-(4-((4-((1-(2-(((3R,5S)-5-(((4-((S)-4-acryloyl-3-(cyanomethyl)piperazin-1-yl)-7-(8-chloronaphthalen-1-yl)-5,6,7,8-tetrahydropyrido[3,4-d]pyrimidin-2-yl)oxy)methyl)-1-methylpyrrolidin-3-yl)oxy)acetyl)piperidin-4-yl)methyl)piperazin-1-yl)methyl)phenyl)-5-(5-ethyl-2,4-dihydroxyphenyl)-N-(2,2,2-trifluoroethyl)-4H-1,2,4-triazole-3-carboxamide], the EC50 (commonly the concentration that produces a half-maximal response) in test [1] is below 100 nM. Also, the IC50 on HSP90a protein and on KRAS(G12C) was below 100 nM each time.
Consider `C=CC(=O)N1CCN(c2nc(OC[C@@H]3C[C@@H](OCC(=O)N4CCC(CN5CCN(Cc6ccc(-n7c(O)nnc7-c7cc(C(C)C)c(O)cc7O)cc6)CC5)CC4)CN3C)nc3c2CCN(c2cccc4cccc(Cl)c24)C3)C[C@@H]1CC#N` [Compound 301, 2-((S)-1-acryloyl-4-(7-(8-chloronaphthalen-1-yl)-2-(((2S,4R)-4-(2-(4-((4-(4-(3-(2,4-dihydroxy-5-isopropylphenyl)-5-hydroxy-4H-1,2,4-triazol-4-yl)benzyl)piperazin-1-yl)methyl)piperidin-1-yl)-2-oxoethoxy)-1-methylpyrrolidin-2-yl)methoxy)-5,6,7,8-tetrahydropyrido[3,4-d]pyrimidin-4-yl)piperazin-2-yl)acetonitrile], for which the EC50 in test [1] was in the range of 100 to 1000 nM. Besides, the results for the IC50 at HSP90a protein and on KRAS(G12C) were below 100 nM and 100 to 1000 nM, respectively.
In the case of `C=CC(=O)N1CCN(c2nc(OC[C@@H]3C[C@@H](OCC(=O)NCc4ccc(-n5c(O)nnc5-c5cc(C(C)C)c(O)cc5O)cc4)CN3C)nc3c2CCN(c2cccc4cccc(Cl)c24)C3)C[C@@H]1CC#N` [Compound 302, 2-(((3R,5S)-5-(((4-((S)-4-acryloyl-3-(cyanomethyl)piperazin-1-yl)-7-(8-chloronaphthalen-1-yl)-5,6,7,8-tetrahydropyrido[3,4-d]pyrimidin-2-yl)oxy)methyl)-1-methylpyrrolidin-3-yl)oxy)-N-(4-(3-(2,4-dihydroxy-5-isopropylphenyl)-5-hydroxy-4H-1,2,4-triazol-4-yl)benzyl)acetamide], the EC50 in test [1] fell in the range of 100 to 1000 nM. Further, the IC50 on HSP90a protein was below 100 nM; on KRAS(G12C) it was 100 to 1000 nM.
As to `C=CC(=O)N1CCN(c2nc(OC[C@@H]3C[C@@H](OCC(=O)N4CCC(Cc5ccc(-n6c(C(=O)NCC(F)(F)F)nnc6-c6cc(C(C)C)c(O)cc6O)cc5)CC4)CN3C)nc3c2CCN(c2cccc4cccc(Cl)c24)C3)C[C@@H]1CC#N` [Compound 303, 4-(4-((1-(2-(((3R,5S)-5-(((4-((S)-4-acryloyl-3-(cyanomethyl)piperazin-1-yl)-7-(8-chloronaphthalen-1-yl)-5,6,7,8-tetrahydropyrido[3,4-d]pyrimidin-2-yl)oxy)methyl)-1-methylpyrrolidin-3-yl)oxy)acetyl)piperidin-4-yl)methyl)phenyl)-5-(2,4-dihydroxy-5-isopropylphenyl)-N-(2,2,2-trifluoroethyl)-4H-1,2,4-triazole-3-carboxamide], in test [1], the EC50 is 100 to 1000 nM. For the same molecule, the results for the IC50 at HSP90a protein and at KRAS(G12C) were below 100 nM and 100 to 1000 nM, respectively.
`C=CC(=O)N1CCN(c2nc(OC[C@@H]3CC[C@H](C(=O)N4CCN(C(=O)C5CCN(Cc6ccc(-n7c(C(=O)NCC(F)(F)F)nnc7-c7cc(C(C)C)c(O)cc7O)cc6)CC5)CC4)N3C)nc3c2CCN(c2cccc4cccc(Cl)c24)C3)C[C@@H]1CC#N` [Compound 304, 4-{4-[(4-{4-[(2R,5S)-5-({[7-(8-chloronaphthalen-1-yl)-4-[(3S)-3-(cyanomethyl)-4-(prop-2-enoyl)piperazin-1-yl]-5H,6H,8H-pyrido[3,4-d]pyrimidin-2-yl]oxy}methyl)-1-methylpyrrolidine-2-carbonyl]piperazine-1-carbonyl}piperidin-1-yl)methyl]p-henyl}-5-(2,4-dihydroxy-5-isopropylphenyl)-N-(2,2,2-trifluoroethyl)-1,2,4-triazole-3-carboxamide] displayed an EC50 in test [1] below 100 nM. The figures for the IC50 on HSP90a protein and at KRAS(G12C) were below 100 nM and 100 to 1000 nM, respectively.
Regarding `C=CC(=O)N1CCN(c2nc(OC[C@@H]3C[C@H](NC(=O)C4CCN(C(=O)C5CCN(Cc6ccc(-n7c(C(=O)NCC(F)(F)F)nnc7-c7cc(C(C)C)c(O)cc7O)cc6)CC5)CC4)CN3C)nc3c2CCN(c2cccc4cccc(Cl)c24)C3)C[C@@H]1CC#N` [Compound 307, N-[(3S,5S)-5-({[7-(8-chloronaphthalen-1-yl)-4-[(3S)-3-(cyanomethyl)-4-(prop-2-enoyl)piperazin-1-yl]-5H,6H,8H-pyrido[3,4-d]pyrimidin-2-yl]oxy}methyl)-1-methylpyrrolidin-3-yl]-1-[1-({4-[3-(2,4-dihydroxy-5-isopropylphenyl)-5-[(2,2,2-tri-fluoroethyl)carbamoyl]-1,2,4-triazol-4-yl]phenyl}methyl)piperidine-4-carbonyl]piperidine-4-carboxamide], the EC50 in test [1] is below 100 nM. Moreover, the IC50 on HSP90a protein and on KRAS(G12C) was below 100 nM in each case.
`C=CC(=O)N1CCN(c2nc(OC[C@@H]3C[C@H](NC(=O)C4CCN(C(=O)C5CCN(Cc6ccc(-n7c(C(=O)NCC(F)(F)C(F)(F)F)nnc7-c7cc(C(C)C)c(O)cc7O)cc6)CC5)CC4)CN3C)nc3c2CCN(c2cccc4cccc(Cl)c24)C3)C[C@@H]1CC#N` [Compound 308, N-[(3S,5S)-5-({[7-(8-chloronaphthalen-1-yl)-4-[(3S)-3-(cyanomethyl)-4-(prop-2-enoyl)piperazin-1-yl]-5H,6H,8H-pyrido[3,4-d]pyrimidin-2-yl]oxy}methyl)-1-methylpyrrolidin-3-yl]-1-[1-({4-[3-(2,4-dihydroxy-5-isopropylphenyl)-5-[(2,2,3,3,3-pentafluoropropyl)carbamoyl]-1,2,4-triazol-4-yl]phenyl}methyl)piperidine-4-carbonyl]piperidine-4-carboxamide]: in test [1], the EC50 is below 100 nM. Moreover, the IC50 at HSP90a protein and on KRAS(G12C) was below 100 nM each time.
In turn, `C=CC(=O)N1CCN(c2nc(OC[C@@H]3C[C@H](NC(=O)C4CCN(C(=O)C5CCN(Cc6ccc(-n7c(O)nnc7-c7cc(C(C)C)c(O)cc7O)cc6)CC5)CC4)CN3C)nc3c2CCN(c2cccc4cccc(Cl)c24)C3)C[C@@H]1CC#N` [Compound 309, N-[(3S,5S)-5-({[7-(8-chloronaphthalen-1-yl)-4-[(3S)-3-(cyanomethyl)-4-(prop-2-enoyl)piperazin-1-yl]-5H,6H,8H-pyrido[3,4-d]pyrimidin-2-yl]oxy}methyl)-1-methylpyrrolidin-3-yl]-1-[1-({4-[3-(2,4-dihydroxy-5-isopropylphenyl)-5-hydroxy-1,2,4-triazol-4-yl]phenyl}methyl)piperidine-4-carbonyl]piperidine-4-carboxamide] had an EC50 in test [1] of 100 to 1000 nM. The IC50 on HSP90a protein and on KRAS(G12C) was below 100 nM throughout.
The molecule `C=CC(=O)N1CCN(c2nc(OC[C@@H]3CC[C@H](CN4CCN(C(=O)C5CCN(Cc6ccc(-n7c(C(=O)NCC(F)(F)F)nnc7-c7cc(C(C)C)c(O)cc7O)cc6)CC5)CC4)N3C)nc3c2CCN(c2cccc4cccc(Cl)c24)C3)C[C@@H]1CC#N` [Compound 310, 4-(4-{[4-(4-{[(2R,5S)-5-({[7-(8-chloronaphthalen-1-yl)-4-[(3S)-3-(cyanomethyl)-4-(prop-2-enoyl)piperazin-1-yl]-5H,6H,8H-pyrido[3,4-d]pyrimidin-2-yl]oxy}methyl)-1-methylpyrrolidin-2-yl]methyl}piperazine-1-carbonyl)piperidin-1-yl]methyl}phenyl)-5-(2,4-dihydroxy-5-isopropylphenyl)-N-(2,2,2-trifluoroethyl)-1,2,4-triazole-3-carboxamide] displayed an EC50 in test [1] below 100 nM. Moreover, the IC50 on HSP90a protein and at KRAS(G12C) was below 100 nM throughout.
With `C=CC(=O)N1CCN(c2nc(OC[C@@H]3C[C@H](N4CCC5(CCN(C(=O)C6CCN(Cc7ccc(-n8c(C(=O)NCC(F)(F)F)nnc8-c8cc(C(C)C)c(O)cc8O)cc7)CC6)CC5)CC4)CN3C)nc3c2CCN(c2cccc4cccc(Cl)c24)C3)C[C@@H]1CC#N` [Compound 311, 4-{4-[(4-{9-[(3S,5S)-5-({[7-(8-chloronaphthalen-1-yl)-4-[(3S)-3-(cyanomethyl)-4-(prop-2-enoyl)piperazin-1-yl]-5H,6H,8H-pyrido[3,4-d]pyrimidin-2-yl]oxy}methyl)-1-methylpyrrolidin-3-yl]-3,9-diazaspiro[5.5]undecane-3-carbonyl}piperidin-1-yl)methyl]phenyl}-5-(2,4-dihydroxy-5-isopropylphenyl)-N-(2,2,2-trifluoroethyl)-1,2,4-triazole-3-carboxamide], the EC50 in test [1] is below 100 nM. Also, the IC50 at HSP90a protein and at KRAS(G12C) was below 100 nM each time.

The values are drawn from patent publication US20230391772A1, “METHODS AND COMPOSITIONS FOR TARGETED PROTEIN DEGRADATION” (Ranok Therapeutics (Hangzhou) Co. Ltd., priority 2020, published 2023).
